Measurements reported in ChEMBL document CHEMBL5724914, “Linking interpersonal differences in gut microbiota composition and drug biotransformation activity” (2024).
Where a SMILES comes first, the peptide text is derived from it. [ ]: non-standard residue; d: D form. pGlu = O=C1CC[C@@H](C(=O)O)N1; Thz = O=C(O)[C@@H]1CSCN1

Test: (§1) The drug is tested on WLS-006 corresponding to human gut metagenome with ENA study accession number: PRJEB37062 and ENA sample accession number: ERS12561741 for biotransformation under anaerobic condition. The drug concentrations were measured over 9 timepoints collected between 0 and 24 hours of incubation by liquid-chromatography-coupled mass spectrometry (LC–MS)
Details: 2 µM
Also: call rule not given here.

Structure (SMILES) | Bacterial Biotransformation
CO[C@]12C[C@@H](COC(=O)c3cncc(Br)c3)CN(C)[C@@H]1Cc1cn(C)c3cccc2c13 [NICERGOLINE] | Compound metabolized
c1ccc([C@H]2CN3CCSC3=N2)cc1 [LEVAMISOLE] | Compound metabolized
O=c1[nH]c2ccccc2n1CCCN1CCC(n2c(=O)[nH]c3cc(Cl)ccc32)CC1 [DOMPERIDONE] | Compound NOT metabolized
C#C[C@]1(O)CC[C@H]2[C@@H]3CCC4=CC(=O)CC[C@@H]4[C@H]3CC[C@@]21CC [LEVONORGESTREL] | Compound metabolized
OCCN1CCN(CCCN2c3ccccc3Sc3ccc(C(F)(F)F)cc32)CC1 [FLUPHENAZINE] | Compound NOT metabolized
COC(=O)[C@H]1[C@H]2C[C@@H]3c4[nH]c5cc(OC)ccc5c4CCN3C[C@H]2C[C@@H](OC(=O)c2cc(OC)c(OC)c(OC)c2)[C@@H]1OC [RESERPINE] | Compound metabolized

Test: as §1, with “WLS-069” for “WLS-006”, “ERS12561748” for “ERS12561741”
Details: 2 µM

Structure (SMILES) | Bacterial Biotransformation
CO[C@]12C[C@@H](COC(=O)c3cncc(Br)c3)CN(C)[C@@H]1Cc1cn(C)c3cccc2c13 [NICERGOLINE] | Compound NOT metabolized
C=CCN1CC[C@]23c4c5ccc(O)c4O[C@H]2C(=O)CC[C@@]3(O)[C@H]1C5 [NALOXONE] | Compound NOT metabolized
c1ccc([C@H]2CN3CCSC3=N2)cc1 [LEVAMISOLE] | Compound metabolized
O=c1[nH]c2ccccc2n1CCCN1CCC(n2c(=O)[nH]c3cc(Cl)ccc32)CC1 [DOMPERIDONE] | Compound NOT metabolized
C#C[C@]1(O)CC[C@H]2[C@@H]3CCC4=CC(=O)CC[C@@H]4[C@H]3CC[C@@]21CC [LEVONORGESTREL] | Compound metabolized
OCCN1CCN(CCCN2c3ccccc3Sc3ccc(C(F)(F)F)cc32)CC1 [FLUPHENAZINE] | Compound metabolized
COC(=O)[C@H]1[C@H]2C[C@@H]3c4[nH]c5cc(OC)ccc5c4CCN3C[C@H]2C[C@@H](OC(=O)c2cc(OC)c(OC)c(OC)c2)[C@@H]1OC [RESERPINE] | Compound metabolized
C[C@@H]1C[C@H]2[C@@H]3CCC4=CC(=O)C=C[C@]4(C)[C@@]3(F)[C@@H](O)C[C@]2(C)[C@@]1(O)C(=O)CO [DEXAMETHASONE] | Compound NOT metabolized
NC(=O)N1c2ccccc2CC(=O)c2ccccc21 [OXCARBAZEPINE] | Compound NOT metabolized

Details: human gut metagenome, 24 h, 2 µM

Structure (SMILES) | Bacterial Biotransformation
CO[C@]12C[C@@H](COC(=O)c3cncc(Br)c3)CN(C)[C@@H]1Cc1cn(C)c3cccc2c13 [NICERGOLINE] | Compound NOT metabolized
O=C1CC[C@@H](C(=O)N2CSC[C@H]2C(=O)O)N1 [PIDOTIMOD] ([pGlu]-[Thz]-OH) | Compound NOT metabolized
C=CCN1CC[C@]23c4c5ccc(O)c4O[C@H]2C(=O)CC[C@@]3(O)[C@H]1C5 [NALOXONE] | Compound NOT metabolized
c1ccc([C@H]2CN3CCSC3=N2)cc1 [LEVAMISOLE] | Compound metabolized
O=c1[nH]c2ccccc2n1CCCN1CCC(n2c(=O)[nH]c3cc(Cl)ccc32)CC1 [DOMPERIDONE] | Compound NOT metabolized
C#C[C@]1(O)CC[C@H]2[C@@H]3CCC4=CC(=O)CC[C@@H]4[C@H]3CC[C@@]21CC [LEVONORGESTREL] | Compound metabolized
OCCN1CCN(CCCN2c3ccccc3Sc3ccc(C(F)(F)F)cc32)CC1 [FLUPHENAZINE] | Compound metabolized
C[C@@H]1C[C@H]2[C@@H]3CCC4=CC(=O)C=C[C@]4(C)[C@@]3(F)[C@@H](O)C[C@]2(C)[C@@]1(O)C(=O)CO [DEXAMETHASONE] | Compound NOT metabolized
NC(=O)N1c2ccccc2CC(=O)c2ccccc21 [OXCARBAZEPINE] | Compound NOT metabolized

Test: as §1, with “Z-009” for “WLS-006”, “pig” for “human”, “ERS12561809” for “ERS12561741”
Details: 2 µM

Structure (SMILES) | Bacterial Biotransformation
CO[C@]12C[C@@H](COC(=O)c3cncc(Br)c3)CN(C)[C@@H]1Cc1cn(C)c3cccc2c13 [NICERGOLINE] | Compound metabolized
C=CCN1CC[C@]23c4c5ccc(O)c4O[C@H]2C(=O)CC[C@@]3(O)[C@H]1C5 [NALOXONE] | Compound NOT metabolized
O=c1[nH]c2ccccc2n1CCCN1CCC(n2c(=O)[nH]c3cc(Cl)ccc32)CC1 [DOMPERIDONE] | Compound NOT metabolized
OCCN1CCN(CCCN2c3ccccc3Sc3ccc(C(F)(F)F)cc32)CC1 [FLUPHENAZINE] | Compound metabolized
CCCCCCOC(=O)/N=C(/N)c1ccc(NCc2nc3cc(C(=O)N(CCC(=O)OCC)c4ccccn4)ccc3n2C)cc1.CS(=O)(=O)O [DABIGATRAN ETEXILATE MESYLATE] | Compound NOT metabolized
COC(=O)[C@H]1[C@H]2C[C@@H]3c4[nH]c5cc(OC)ccc5c4CCN3C[C@H]2C[C@@H](OC(=O)c2cc(OC)c(OC)c(OC)c2)[C@@H]1OC [RESERPINE] | Compound NOT metabolized
NC(=O)N1c2ccccc2CC(=O)c2ccccc21 [OXCARBAZEPINE] | Compound metabolized

Details: human gut metagenome, 24 h, 2 µM
Remark: another data set of the same source

Structure (SMILES) | Bacterial Biotransformation
CO[C@]12C[C@@H](COC(=O)c3cncc(Br)c3)CN(C)[C@@H]1Cc1cn(C)c3cccc2c13 [NICERGOLINE] | Compound NOT metabolized
O=C1CC[C@@H](C(=O)N2CSC[C@H]2C(=O)O)N1 [PIDOTIMOD] ([pGlu]-[Thz]-OH) | Compound NOT metabolized
C=CCN1CC[C@]23c4c5ccc(O)c4O[C@H]2C(=O)CC[C@@]3(O)[C@H]1C5 [NALOXONE] | Compound NOT metabolized
c1ccc([C@H]2CN3CCSC3=N2)cc1 [LEVAMISOLE] | Compound NOT metabolized
O=c1[nH]c2ccccc2n1CCCN1CCC(n2c(=O)[nH]c3cc(Cl)ccc32)CC1 [DOMPERIDONE] | Compound NOT metabolized
C#C[C@]1(O)CC[C@H]2[C@@H]3CCC4=CC(=O)CC[C@@H]4[C@H]3CC[C@@]21CC [LEVONORGESTREL] | Compound metabolized
OCCN1CCN(CCCN2c3ccccc3Sc3ccc(C(F)(F)F)cc32)CC1 [FLUPHENAZINE] | Compound metabolized
COC(=O)[C@H]1[C@H]2C[C@@H]3c4[nH]c5cc(OC)ccc5c4CCN3C[C@H]2C[C@@H](OC(=O)c2cc(OC)c(OC)c(OC)c2)[C@@H]1OC [RESERPINE] | Compound metabolized
C[C@@H]1C[C@H]2[C@@H]3CCC4=CC(=O)C=C[C@]4(C)[C@@]3(F)[C@@H](O)C[C@]2(C)[C@@]1(O)C(=O)CO [DEXAMETHASONE] | Compound NOT metabolized
NC(=O)N1c2ccccc2CC(=O)c2ccccc21 [OXCARBAZEPINE] | Compound NOT metabolized

Test: as §1, with “WLS-077” for “WLS-006”, “ERS12561750” for “ERS12561741”
Details: 2 µM

Structure (SMILES) | Bacterial Biotransformation
O=C1CC[C@@H](C(=O)N2CSC[C@H]2C(=O)O)N1 [PIDOTIMOD] ([pGlu]-[Thz]-OH) | Compound NOT metabolized
C=CCN1CC[C@]23c4c5ccc(O)c4O[C@H]2C(=O)CC[C@@]3(O)[C@H]1C5 [NALOXONE] | Compound NOT metabolized
O=c1[nH]c2ccccc2n1CCCN1CCC(n2c(=O)[nH]c3cc(Cl)ccc32)CC1 [DOMPERIDONE] | Compound NOT metabolized
C#C[C@]1(O)CC[C@H]2[C@@H]3CCC4=CC(=O)CC[C@@H]4[C@H]3CC[C@@]21CC [LEVONORGESTREL] | Compound metabolized
COC(=O)[C@H]1[C@H]2C[C@@H]3c4[nH]c5cc(OC)ccc5c4CCN3C[C@H]2C[C@@H](OC(=O)c2cc(OC)c(OC)c(OC)c2)[C@@H]1OC [RESERPINE] | Compound NOT metabolized
C[C@@H]1C[C@H]2[C@@H]3CCC4=CC(=O)C=C[C@]4(C)[C@@]3(F)[C@@H](O)C[C@]2(C)[C@@]1(O)C(=O)CO [DEXAMETHASONE] | Compound NOT metabolized
NC(=O)N1c2ccccc2CC(=O)c2ccccc21 [OXCARBAZEPINE] | Compound NOT metabolized

Details: human gut metagenome, 24 h, 2 µM
Remark: another data set of the same source

Structure (SMILES) | Bacterial Biotransformation
CO[C@]12C[C@@H](COC(=O)c3cncc(Br)c3)CN(C)[C@@H]1Cc1cn(C)c3cccc2c13 [NICERGOLINE] | Compound NOT metabolized
C=CCN1CC[C@]23c4c5ccc(O)c4O[C@H]2C(=O)CC[C@@]3(O)[C@H]1C5 [NALOXONE] | Compound NOT metabolized
c1ccc([C@H]2CN3CCSC3=N2)cc1 [LEVAMISOLE] | Compound metabolized
C#C[C@]1(O)CC[C@H]2[C@@H]3CCC4=CC(=O)CC[C@@H]4[C@H]3CC[C@@]21CC [LEVONORGESTREL] | Compound metabolized
OCCN1CCN(CCCN2c3ccccc3Sc3ccc(C(F)(F)F)cc32)CC1 [FLUPHENAZINE] | Compound metabolized
COC(=O)[C@H]1[C@H]2C[C@@H]3c4[nH]c5cc(OC)ccc5c4CCN3C[C@H]2C[C@@H](OC(=O)c2cc(OC)c(OC)c(OC)c2)[C@@H]1OC [RESERPINE] | Compound metabolized
C[C@@H]1C[C@H]2[C@@H]3CCC4=CC(=O)C=C[C@]4(C)[C@@]3(F)[C@@H](O)C[C@]2(C)[C@@]1(O)C(=O)CO [DEXAMETHASONE] | Compound NOT metabolized
NC(=O)N1c2ccccc2CC(=O)c2ccccc21 [OXCARBAZEPINE] | Compound NOT metabolized

Details: human gut metagenome, 24 h, 2 µM
Remark: another data set of the same source

Structure (SMILES) | Bacterial Biotransformation
CO[C@]12C[C@@H](COC(=O)c3cncc(Br)c3)CN(C)[C@@H]1Cc1cn(C)c3cccc2c13 [NICERGOLINE] | Compound NOT metabolized
O=C1CC[C@@H](C(=O)N2CSC[C@H]2C(=O)O)N1 [PIDOTIMOD] ([pGlu]-[Thz]-OH) | Compound NOT metabolized
C=CCN1CC[C@]23c4c5ccc(O)c4O[C@H]2C(=O)CC[C@@]3(O)[C@H]1C5 [NALOXONE] | Compound NOT metabolized
c1ccc([C@H]2CN3CCSC3=N2)cc1 [LEVAMISOLE] | Compound metabolized
O=c1[nH]c2ccccc2n1CCCN1CCC(n2c(=O)[nH]c3cc(Cl)ccc32)CC1 [DOMPERIDONE] | Compound NOT metabolized
C#C[C@]1(O)CC[C@H]2[C@@H]3CCC4=CC(=O)CC[C@@H]4[C@H]3CC[C@@]21CC [LEVONORGESTREL] | Compound metabolized
OCCN1CCN(CCCN2c3ccccc3Sc3ccc(C(F)(F)F)cc32)CC1 [FLUPHENAZINE] | Compound metabolized
COC(=O)[C@H]1[C@H]2C[C@@H]3c4[nH]c5cc(OC)ccc5c4CCN3C[C@H]2C[C@@H](OC(=O)c2cc(OC)c(OC)c(OC)c2)[C@@H]1OC [RESERPINE] | Compound NOT metabolized
C[C@@H]1C[C@H]2[C@@H]3CCC4=CC(=O)C=C[C@]4(C)[C@@]3(F)[C@@H](O)C[C@]2(C)[C@@]1(O)C(=O)CO [DEXAMETHASONE] | Compound NOT metabolized
NC(=O)N1c2ccccc2CC(=O)c2ccccc21 [OXCARBAZEPINE] | Compound NOT metabolized

Details: human gut metagenome, 24 h, 2 µM
Remark: another data set of the same source

Structure (SMILES) | Bacterial Biotransformation
CO[C@]12C[C@@H](COC(=O)c3cncc(Br)c3)CN(C)[C@@H]1Cc1cn(C)c3cccc2c13 [NICERGOLINE] | Compound NOT metabolized
C=CCN1CC[C@]23c4c5ccc(O)c4O[C@H]2C(=O)CC[C@@]3(O)[C@H]1C5 [NALOXONE] | Compound NOT metabolized
O=c1[nH]c2ccccc2n1CCCN1CCC(n2c(=O)[nH]c3cc(Cl)ccc32)CC1 [DOMPERIDONE] | Compound NOT metabolized
C#C[C@]1(O)CC[C@H]2[C@@H]3CCC4=CC(=O)CC[C@@H]4[C@H]3CC[C@@]21CC [LEVONORGESTREL] | Compound metabolized
OCCN1CCN(CCCN2c3ccccc3Sc3ccc(C(F)(F)F)cc32)CC1 [FLUPHENAZINE] | Compound metabolized
C[C@@H]1C[C@H]2[C@@H]3CCC4=CC(=O)C=C[C@]4(C)[C@@]3(F)[C@@H](O)C[C@]2(C)[C@@]1(O)C(=O)CO [DEXAMETHASONE] | Compound NOT metabolized
NC(=O)N1c2ccccc2CC(=O)c2ccccc21 [OXCARBAZEPINE] | Compound NOT metabolized
